Data on 18 compounds can be found in ChEMBL document CHEMBL5321192, “Synthesis and screening of novel 4-N-heterocyclic-2-aryl-6,7,8-trimethoxyquinazolines as antiproliferative and tubulin polymerization inhibitors” (Bioorg Med Chem, 2022).

Active and inactive are the calls of the source. The calls are words filed in the database; no cut-off is given here.

For one data set, the system named is HT-29. The data set is described as follows: Antiproliferative activity against human HT-29 cells assessed as cell growth inhibition incubated for 48 hrs by MTT assay. In kind it is functional, cell-based. The settings on record: HT-29, 48 h. (In general: Tetrazolium dyes change colour on reduction, which living cells bring about.)
Data set [1] in a line: Cytotoxicity against human HEK293T cells assessed as cell growth inhibition incubated for 48 hrs by MTT assay. In kind it is toxicity, cell-based, HEK-293T.
The next data set relates to HeLa. The data set is described as follows: Antiproliferative activity against human HeLa cells assessed as cell growth inhibition incubated for 48 hrs by MTT assay. In kind it is functional, cell-based.
In data set [2] the test system is MCF7. The data set is described as follows: Antiproliferative activity against human MCF7 cells assessed as cell growth inhibition incubated for 48 hrs by MTT assay. In kind it is functional, cell-based. The settings on record: MCF7, 48 h.
The target in data set [3] is T1, Tubulin (Sus scrofa) (UniProt P02554+P02550). The data set can be described thus: Inhibition of porcine brain tubulin polymerization at 3 uM incubated for 60 mins in presence of GTP by spectrophotometric analysis. In kind it is tissue-based.
The test system of data set [4] is MCF7. The data set is described as follows: Induction of cell cycle arrest in human MCF7 cells assessed as accumulation of cells at S phase at 10 uM incubated for 48 hrs by propidium iodide staining based flow cytometer analysis (reference value: 14.6 %). In kind it is functional. (Flow cytometry measures light scatter and fluorescence of single cells or particles in a stream.)

Data set [5] has as its target T1, Tubulin (Sus scrofa). The data set can be described thus: Inhibition of porcine brain tubulin polymerization incubated for 60 mins in presence of GTP by spectrophotometric analysis. In kind it is tissue-based.
The target in data set [6] is T1, Tubulin (Sus scrofa). The data set can be described thus: Inhibition of porcine brain tubulin polymerization at 100 nM incubated for 60 mins in presence of GTP by spectrophotometric analysis. In kind it is tissue-based.
Data set [7] deals with MCF7. The data set is described as follows: Induction of apoptosis in human MCF7 cells assessed as necrotic cells at 10 uM incubated for 48 hrs by Annexin V-FITC/propidium iodide staining based flow cytometric analysis (reference value: 1.3 %). In kind it is functional.
Another data set concerns Cell membrane. The data set is described as follows: Induction of mitochondrial membrane potential depolarization in human MCF7 cells at 10 uM incubated for 48 hrs by JC-1 staining based microplate reader assay. In kind it is subcellular.
In data set [8] the test system is MCF7. The data set can be described thus: Induction of apoptosis in human MCF7 cells assessed as viable cells at 10 uM incubated for 48 hrs by Annexin V-FITC/propidium iodide staining based flow cytometric analysis. In kind it is functional. Conditions: read-out: Activity.
Data set [9] has as its system MCF7. The data set is described as follows: Induction of apoptosis in human MCF7 cells assessed as early apoptotic cells at 10 uM incubated for 48 hrs by Annexin V-FITC/propidium iodide staining based flow cytometric analysis (reference value: 2.4 %). In kind it is functional.
The subject of data set [10] is MCF7. The data set can be described thus: Induction of cell cycle arrest in human MCF7 cells assessed as accumulation of cells at G2/M phase at 10 uM incubated for 48 hrs by propidium iodide staining based flow cytometer analysis (reference value: 31.9 %). In kind it is functional.
Data set [11] has as its system MCF7. The data set is described as follows: Induction of cell cycle arrest in human MCF7 cells assessed as accumulation of cells at G1/G0 phase at 10 uM incubated for 48 hrs by propidium iodide staining based flow cytometer analysis (reference value: 53.8 %). In kind it is functional.
The subject of data set [12] is MCF7. The data set is described as follows: Induction of apoptosis in human MCF7 cells assessed as late apoptotic cells at 10 uM incubated for 48 hrs by Annexin V-FITC/propidium iodide staining based flow cytometric analysis (reference value: 3.4 %). In kind it is functional.

One may read the IC50 as the point on the concentration scale where inhibition reaches its midpoint.

T1 sequence (P02550 whole entry, looked up): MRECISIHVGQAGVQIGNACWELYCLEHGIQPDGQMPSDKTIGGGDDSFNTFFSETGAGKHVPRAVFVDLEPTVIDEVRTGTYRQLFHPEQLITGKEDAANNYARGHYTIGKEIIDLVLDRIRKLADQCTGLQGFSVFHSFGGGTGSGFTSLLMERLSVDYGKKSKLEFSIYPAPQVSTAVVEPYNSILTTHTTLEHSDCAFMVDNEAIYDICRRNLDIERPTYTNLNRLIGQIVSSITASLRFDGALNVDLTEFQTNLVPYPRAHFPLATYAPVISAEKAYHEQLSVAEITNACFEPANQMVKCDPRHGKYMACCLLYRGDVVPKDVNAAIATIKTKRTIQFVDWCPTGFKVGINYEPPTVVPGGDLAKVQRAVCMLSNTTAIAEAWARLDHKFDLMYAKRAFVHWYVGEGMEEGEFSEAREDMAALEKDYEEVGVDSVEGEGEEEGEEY
T1 sequence (P02554 whole entry, looked up): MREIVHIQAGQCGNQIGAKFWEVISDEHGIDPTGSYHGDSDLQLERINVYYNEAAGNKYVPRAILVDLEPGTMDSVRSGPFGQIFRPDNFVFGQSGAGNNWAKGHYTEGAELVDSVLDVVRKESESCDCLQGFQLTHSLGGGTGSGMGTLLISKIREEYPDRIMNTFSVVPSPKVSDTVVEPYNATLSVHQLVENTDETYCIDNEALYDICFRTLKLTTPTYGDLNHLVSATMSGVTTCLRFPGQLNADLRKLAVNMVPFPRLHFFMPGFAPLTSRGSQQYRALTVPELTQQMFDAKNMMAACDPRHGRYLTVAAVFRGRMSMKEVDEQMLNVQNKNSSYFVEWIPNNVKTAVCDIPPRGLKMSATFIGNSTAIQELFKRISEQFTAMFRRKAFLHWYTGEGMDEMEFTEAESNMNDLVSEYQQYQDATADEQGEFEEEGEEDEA

In the case of `COc1cc2c(-n3cnnc3)nc(-c3ccc(Br)cc3)nc2c(OC)c1OC`, the IC50 with HT-29 was above 25 µM; with HeLa, above 25 µM; in the data set with MCF7 [2], 8.59 µM. Also, the IC50 at 48 h in data set [1] is above 25 µM.
For `CC(=O)O[C@H]1C(=O)[C@@]2(C)[C@H]([C@H](OC(=O)c3ccccc3)[C@]3(O)C[C@H](OC(=O)[C@H](O)[C@@H](NC(=O)c4ccccc4)c4ccccc4)C(C)=C1C3(C)C)[C@]1(OC(C)=O)CO[C@@H]1C[C@@H]2O`, the inhibition result at Tubulin (Sus scrofa) [3] was “Active”.
With `COc1cc2c(-n3cnnc3)nc(-c3ccccc3)nc2c(OC)c1OC`, the IC50 with HT-29, with HeLa and in the data set on MCF7 [2] was above 25 µM throughout. Further, the concentration for half-maximal inhibition (IC50) at 48 h in data set [1] was above 25 µM.
As for `COc1cc2c(-n3nnc4ccccc43)nc(-c3ccc(Br)cc3)nc2c(OC)c1OC`, the results for the IC50 in the data set with HT-29, in the data set with HeLa and in the data set on MCF7 [2] were above 25 µM, 10.2 µM and 15.2 µM, respectively. In addition, the IC50 at 48 h in [1] is above 25 µM.
As for `COc1cc(-c2nc(-n3cnnc3)c3cc(OC)c(OC)c(OC)c3n2)cc(OC)c1OC`, the results for the concentration for half-maximal inhibition (IC50) with HT-29, in the data set on HeLa and in the data set with MCF7 [2] were 5.45 µM, above 25 µM and 23.4 µM, respectively. Further, the IC50 at 48 h in data set [1] is above 25 µM.
Turning to `COc1cc2c(-n3cnnc3)nc(-c3ccc(Cl)cc3)nc2c(OC)c1OC`, the IC50 is above 25 µM in the data set with HT-29, 13.3 µM with HeLa and 8.33 µM in the data set on MCF7 [2]. The IC50 at 48 h in data set [1] is above 25 µM.
As for `COc1ccc(-c2nc(-n3ccnc3)c3cc(OC)c(OC)c(OC)c3n2)cc1OC`, the IC50 is above 25 µM in the data set with HT-29, 18.7 µM with HeLa and 22.1 µM in the data set with MCF7 [2]. Also, the IC50 at 48 h in data set [1] is above 25 µM.
With `COc1cc2c(-n3nnc4ccccc43)nc(-c3ccc(Cl)cc3)nc2c(OC)c1OC`, the half-inhibitory concentration (IC50) in the data set with HT-29 is 13 µM; in the data set with HeLa it was above 25 µM; in the data set on MCF7 [2], 16.2 µM. Moreover, the IC50 at 48 h in [1] was above 25 µM.
`COc1cc2c(-n3cnnc3)nc(-c3ccccc3C(F)(F)F)nc2c(OC)c1OC`: the IC50 was 11.8 µM in the data set on HT-29, above 25 µM in the data set with HeLa and 13.7 µM with MCF7 [2]. Further, the IC50 at 48 h in data set [1] is above 25 µM.
With `COc1ccc(-c2nc(-n3cnnc3)c3cc(OC)c(OC)c(OC)c3n2)cc1`, the IC50 is above 25 µM in the data set on HT-29, 10.3 µM in the data set with HeLa and above 25 µM with MCF7 [2]. Besides, the IC50 at 48 h in [1] was above 25 µM.
In the case of `COc1ccc(-c2nc(-n3nnc4ccccc43)c3cc(OC)c(OC)c(OC)c3n2)cc1`, the IC50 with HT-29 was above 25 µM; in the data set on HeLa it was above 25 µM; with MCF7 [2] it was 18.1 µM. For the same compound, the IC50 at 48 h in data set [1] is above 25 µM.
For the compound `COc1cc2c(-n3ccnc3)nc(-c3ccc(Cl)cc3)nc2c(OC)c1OC`, the Activity came out at 4.9% with MCF7 [4]; 4.1% in the data set on MCF7 [7]; 19.9% in the data set on MCF7 [9]; 82.6% with MCF7 [10]; 11.5% with MCF7 [11]; 41.1% with MCF7 [12]. Also, the inhibition result on Tubulin (Sus scrofa) [5] is “Dose-Dependent Effect”. Besides, the inhibition result on Tubulin (Sus scrofa) [6] is “Active”. The figures for the IC50 with HT-29, in the data set on HeLa and in the data set with MCF7 [2] were 10.4 µM, 8.53 µM and 2.16 µM, respectively. The IC50 at 48 h in [1] was above 25 µM. Also, the result in the data set with Cell membrane was Active. Moreover, in the data set with MCF7 [8], the viability at 10 µM amounted to 34.9%.
Consider `COc1cc2c(-n3ccnc3)nc(-c3ccc(Br)cc3)nc2c(OC)c1OC`, for which the Activity in the data set with MCF7 [4] turned out to be 8.5%; in the data set on MCF7 [7], 7.9%; in the data set with MCF7 [9] it was 9.4%; with MCF7 [10], 17.7%; in the data set with MCF7 [11], 70.3%; in the data set with MCF7 [12], 70.9%. Besides, the IC50 in the data set on HT-29 was 6.76 µM; in the data set with HeLa it was 17.4 µM; in the data set with MCF7 [2], 6.37 µM. In [1], the IC50 at 48 h is above 25 µM. For the same compound, the result in the data set with Cell membrane was inactive. Besides, the viability at 10 µM in the data set with MCF7 [8] was determined as 11.8%.
For the compound `COc1cc2c(N3CCOCC3)nc(-c3ccccc3)nc2c(OC)c1OC`, the IC50 with HT-29, in the data set with HeLa and in the data set with MCF7 [2] was above 25 µM each time. Moreover, the IC50 at 48 h in data set [1] is above 25 µM.
As for `COc1cc2c(c(OC)c1OC)-c1ccc(OC)c(=O)cc1[C@@H](NC(C)=O)CC2` [COLCHICINE], the Activity with MCF7 [4] came to 4.1%; with MCF7 [7], 2.8%; in the data set with MCF7 [9] it was 15.5%; in the data set with MCF7 [10] it was 89.4%; in the data set with MCF7 [11], 5.4%; in the data set with MCF7 [12] it was 54%. Also, the IC50 at 48 h in [1] is above 25 µM. In the data set on MCF7 [8], the viability at 10 µM stood at 27.7%. Moreover, the IC50 in the data set on HeLa stood at 17.8 µM.
In the case of `COc1cc2c(-n3nnc4ccccc43)nc(-c3ccccc3)nc2c(OC)c1OC`, the IC50 was 23.1 µM with HT-29, above 25 µM in the data set on HeLa and 14.4 µM in the data set on MCF7 [2]. In addition, the IC50 at 48 h in data set [1] was above 25 µM.
In the case of `COc1cc2c(-n3ccnc3)nc(-c3ccccc3)nc2c(OC)c1OC`, the IC50 with HT-29 amounted to 15.2 µM; in the data set on HeLa it was 14.7 µM; with MCF7 [2], 12.2 µM. Also, the IC50 at 48 h in [1] was above 25 µM.
The matching figures for `COc1cc(-c2nc(-n3nnc4ccccc43)c3cc(OC)c(OC)c(OC)c3n2)cc(OC)c1OC`: above 25 µM, above 25 µM, above 25 µM and above 25 µM.
